Measurements as given in ChEMBL document CHEMBL3044572, “Discovery of 2-(4-cyano-3-trifluoromethylphenyl amino)-4-(4-quinazolinyloxy)-6-piperazinyl(piperidinyl)-s-triazines as potential antibacterial agents” (2012).
≈ marks a conversion by molar mass, not a printed value. Calls of active or inactive are those of the source. The calls are words filed in the database; no cut-off is given here.

Tests used:
[1] = tested on: Mycobacterium tuberculosis; assay: Antimicrobial activity against Mycobacterium tuberculosis H37Rv by Lowenstein and Jensen method; assay type: functional; conditions: for MIC: Mycobacterium tuberculosis, H37Rv
[2] = tested on: Klebsiella pneumoniae; assay: Antimicrobial activity against Klebsiella pneumoniae MTCC 109 by paper disk diffusion method; assay type: functional
[3] = tested on: Staphylococcus aureus; assay: Antimicrobial activity against Staphylococcus aureus MTCC 96 by agar streak dilution method; assay type: functional
[4] = tested on: Proteus vulgaris; assay: Antimicrobial activity against Proteus vulgaris MTCC 1771 by paper disk diffusion method; assay type: functional
[5] = tested on: Proteus vulgaris; assay: Antimicrobial activity against Proteus vulgaris MTCC 1771 by agar streak dilution method; assay type: functional
[6] = tested on: Candida albicans; assay: Antimicrobial activity against Candida albicans MTCC 183 by agar streak dilution method; assay type: functional
[7] = tested on: Shigella flexneri; assay: Antimicrobial activity against Shigella flexneri MTCC 1457 by paper disk diffusion method; assay type: functional
[8] = tested on: Mycobacterium tuberculosis; assay: Antimicrobial activity against Mycobacterium tuberculosis H37Rv by BACTEC MGIT method; assay type: functional; conditions: for MIC: Mycobacterium tuberculosis, H37Rv
[9] = tested on: Aspergillus niger; assay: Antimicrobial activity against Aspergillus niger MTCC 282 by paper-disk diffusion method; assay type: functional
[10] = tested on: Pseudomonas aeruginosa; assay: Antimicrobial activity against Pseudomonas aeruginosa MTCC 741 by agar streak dilution method; assay type: functional
[11] = tested on: Pseudomonas aeruginosa; assay: Antimicrobial activity against Pseudomonas aeruginosa MTCC 741 at 100 ug/ml by paper disk diffusion method; assay type: functional, organism-based
[12] = tested on: Klebsiella pneumoniae; assay: Antimicrobial activity against Klebsiella pneumoniae MTCC 109 by agar streak dilution method; assay type: functional
[13] = tested on: Aspergillus fumigatus; assay: Antimicrobial activity against Aspergillus fumigatus MTCC 343 by agar streak dilution method; assay type: functional
[14] = tested on: Escherichia coli; assay: Antimicrobial activity against Escherichia coli MTCC 739 by agar streak dilution method; assay type: functional
[15] = tested on: Pseudomonas aeruginosa; assay: Antimicrobial activity against Pseudomonas aeruginosa MTCC 741 by paper disk diffusion method; assay type: functional
[16] = tested on: Aspergillus niger; assay: Antimicrobial activity against Aspergillus niger MTCC 282 by agar streak dilution method; assay type: functional
[17] = tested on: Aspergillus clavatus; assay: Antimicrobial activity against Aspergillus clavatus MTCC 1323 by agar streak dilution method; assay type: functional
[18] = tested on: Bacillus cereus; assay: Antimicrobial activity against Bacillus cereus MTCC 619 by paper disk diffusion method; assay type: functional
[19] = tested on: Staphylococcus aureus; assay: Antimicrobial activity against Staphylococcus aureus MTCC 96 by paper-disk diffusion method; assay type: functional
[20] = tested on: Salmonella typhi; assay: Antimicrobial activity against Salmonella enterica subsp. enterica serovar Typhi MTCC 733 by agar streak dilution method; assay type: functional
[21] = tested on: Candida albicans; assay: Antimicrobial activity against Candida albicans MTCC 183 by paper-disk diffusion method; assay type: functional
[22] = tested on: Shigella flexneri; assay: Antimicrobial activity against Shigella flexneri MTCC 1457 by agar streak dilution method; assay type: functional
[23] = tested on: Salmonella typhi; assay: Antimicrobial activity against Salmonella enterica subsp. enterica serovar Typhi MTCC 733 by paper disk diffusion method; assay type: functional
[24] = tested on: Escherichia coli; assay: Antimicrobial activity against Escherichia coli MTCC 739 by paper disk diffusion method; assay type: functional
[25] = tested on: Bacillus cereus; assay: Antimicrobial activity against Bacillus cereus MTCC 619 by agar streak dilution method; assay type: functional
[26] = tested on: Aspergillus fumigatus; assay: Antimicrobial activity against Aspergillus fumigatus MTCC 343 by paper-disk diffusion method; assay type: functional
[27] = tested on: Aspergillus clavatus; assay: Antimicrobial activity against Aspergillus clavatus MTCC 1323 by paper disk diffusion method; assay type: functional

Row | SMILES | inhibition (percent inhibition) [1] [%] | inhibition zone (IZ) [2] [mm] | MIC [3] [µg/mL] | MIC [5] [µg/mL] | MIC [6] [µg/mL] | inhibition zone (IZ) [7] [mm] | inhibition (INH) [8] [%] | MIC [8] [µg/mL] | inhibition zone (IZ) [9] [mm] | inhibition zone (IZ) [11] | inhibition zone (IZ) [15] [mm] | MIC [16] [µg/mL] | inhibition zone (IZ) [19] [mm] | MIC [20] [µg/mL] | inhibition zone (IZ) [21] [mm] | MIC [22] [µg/mL] | inhibition zone (IZ) [23] [mm] | inhibition zone (IZ) [24] [mm] | MIC [25] [µg/mL] | inhibition zone (IZ) [26] [mm] | other results
1 | COc1ccc(CN2CCN(c3nc(Nc4ccc(C#N)c(C(F)(F)F)c4)nc(Oc4ncnc5ccccc45)n3)CC2)c(OC)c1OC | 99 | 26 | 3.12 (≈ 4.63 µM) | 6.25 (≈ 9.28 µM) | 12.5 (≈ 18.6 µM) | 24 | 99 | 6.25 (≈ 9.28 µM) | 25 | inactive | 26 | 6.25 (≈ 9.28 µM) | 29 | 25 (≈ 37.1 µM) | 26 | 25 (≈ 37.1 µM) | 25 | 28 | 3.12 (≈ 4.63 µM) | 25 | MIC [1]: 6.25 µg/mL (≈ 9.28 µM); inhibition zone (IZ) [4]: 25 mm; MIC [10]: 12.5 µg/mL (≈ 18.6 µM); MIC [12]: 6.25 µg/mL (≈ 9.28 µM); MIC [13]: 6.25 µg/mL (≈ 9.28 µM); MIC [14]: 6.25 µg/mL (≈ 9.28 µM); MIC [17]: 6.25 µg/mL (≈ 9.28 µM); inhibition zone (IZ) [18]: 27 mm; inhibition zone (IZ) [27]: 25 mm
2 | NC(=O)c1cnccn1 [PYRAZINAMIDE] |  |  |  |  |  |  | 99 | 6.25 (≈ 50.8 µM) |  |  |  |  |  |  |  |  |  |  |  |  | 
3 | N#Cc1ccc(Nc2nc(Oc3ncnc4ccccc34)nc(N3CCN(c4cccc(C(F)(F)F)c4)CC3)n2)cc1C(F)(F)F | 99 | 25 | 3.12 (≈ 4.89 µM) | 6.25 (≈ 9.8 µM) | 6.25 (≈ 9.8 µM) | 27 | 99 | 6.25 (≈ 9.8 µM) | 26 | inactive | 28 | 3.12 (≈ 4.89 µM) | 29 | 25 (≈ 39.2 µM) | 27 | 12.5 (≈ 19.6 µM) | 25 | 25 | 3.12 (≈ 4.89 µM) | 24 | MIC [1]: 6.25 µg/mL (≈ 9.8 µM); inhibition zone (IZ) [4]: 26 mm; MIC [10]: 6.25 µg/mL (≈ 9.8 µM); MIC [12]: 6.25 µg/mL (≈ 9.8 µM); MIC [13]: 12.5 µg/mL (≈ 19.6 µM); MIC [14]: 25 µg/mL (≈ 39.2 µM); MIC [17]: 6.25 µg/mL (≈ 9.8 µM); inhibition zone (IZ) [18]: 28 mm; inhibition zone (IZ) [27]: 25 mm
4 | N#Cc1ccc(Nc2nc(Oc3ncnc4ccccc34)nc(N3CCN(c4cccc(Cl)c4Cl)CC3)n2)cc1C(F)(F)F | 99 | 24 | 3.12 (≈ 4.89 µM) | 6.25 (≈ 9.79 µM) | 6.25 (≈ 9.79 µM) | 26 | 99 | 6.25 (≈ 9.79 µM) | 25 | inactive | 24 | 6.25 (≈ 9.79 µM) | 29 | 12.5 (≈ 19.6 µM) | 27 | 12.5 (≈ 19.6 µM) | 26 | 24 | 6.25 (≈ 9.79 µM) | 23 | MIC [1]: 6.25 µg/mL (≈ 9.79 µM); inhibition zone (IZ) [4]: 26 mm; MIC [10]: 12.5 µg/mL (≈ 19.6 µM); MIC [12]: 50 µg/mL (≈ 78.3 µM); MIC [13]: 25 µg/mL (≈ 39.2 µM); MIC [14]: 50 µg/mL (≈ 78.3 µM); MIC [17]: 25 µg/mL (≈ 39.2 µM); inhibition zone (IZ) [18]: 25 mm; inhibition zone (IZ) [27]: 23 mm
5 | CC1CC(C)CN(c2nc(Nc3ccc(C#N)c(C(F)(F)F)c3)nc(Oc3ncnc4ccccc34)n2)C1 (centres undefined) | 99 | 26 | 6.25 (≈ 12 µM) | 6.25 (≈ 12 µM) | 25 (≈ 48 µM) | 22 | 99 | 6.25 (≈ 12 µM) | 22 | inactive | 27 | 25 (≈ 48 µM) | 27 | 25 (≈ 48 µM) | 24 | 100 (≈ 192 µM) | 26 | 27 | 12.5 (≈ 24 µM) | 23 | MIC [1]: 6.25 µg/mL (≈ 12 µM); inhibition zone (IZ) [4]: 26 mm; MIC [10]: 12.5 µg/mL (≈ 24 µM); MIC [12]: 6.25 µg/mL (≈ 12 µM); MIC [13]: 25 µg/mL (≈ 48 µM); MIC [14]: 6.25 µg/mL (≈ 12 µM); MIC [17]: 6.25 µg/mL (≈ 12 µM); inhibition zone (IZ) [18]: 26 mm; inhibition zone (IZ) [27]: 25 mm
6 | CC[C@@H](CO)NCCN[C@@H](CC)CO [ETHAMBUTOL] |  |  |  |  |  |  | 99 | 3.12 (≈ 15.3 µM) |  |  |  |  |  |  |  |  |  |  |  |  | 
7 | CO[C@H]1/C=C/O[C@@]2(C)Oc3c(C)c(O)c4c(O)c(c(/C=N/N5CCN(C)CC5)c(O)c4c3C2=O)NC(=O)/C(C)=C\C=C\[C@H](C)[C@H](O)[C@@H](C)[C@@H](O)[C@@H](C)[C@H](OC(C)=O)[C@@H]1C [RIFAMPIN] |  |  |  |  |  |  | 99 | 0.25 (≈ 0.304 µM) |  |  |  |  |  |  |  |  |  |  |  |  | 
8 | O=C(O)c1cn(C2CC2)c2cc(N3CCNCC3)c(F)cc2c1=O [CIPROFLOXACIN] |  | 33 | 1.56 (≈ 4.71 µM) | 0.39 (≈ 1.18 µM) | 1.56 (≈ 4.71 µM) | 32 |  |  | 30 | inactive | 33 | 1.56 (≈ 4.71 µM) | 30 | 0.39 (≈ 1.18 µM) | 33 | 1.56 (≈ 4.71 µM) | 30 | 32 | 0.39 (≈ 1.18 µM) | 29 | 
9 | N#Cc1ccc(Nc2nc(Oc3ncnc4ccccc34)nc(N3CCN(C(c4ccccc4)c4ccc(Cl)cc4)CC3)n2)cc1C(F)(F)F (centres undefined) | 99 | 24 | 6.25 (≈ 9 µM) | 50 (≈ 72 µM) | 25 (≈ 36 µM) | 24 | 99 | 6.25 (≈ 9 µM) | 24 | inactive | 28 | 12.5 (≈ 18 µM) | 29 | 6.25 (≈ 9 µM) | 24 | 50 (≈ 72 µM) | 27 | 26 | 6.25 (≈ 9 µM) | 24 | MIC [1]: 6.25 µg/mL (≈ 9 µM); inhibition zone (IZ) [4]: 23 mm; MIC [10]: 6.25 µg/mL (≈ 9 µM); MIC [12]: 25 µg/mL (≈ 36 µM); MIC [13]: 12.5 µg/mL (≈ 18 µM); MIC [14]: 25 µg/mL (≈ 36 µM); MIC [17]: 12.5 µg/mL (≈ 18 µM); inhibition zone (IZ) [18]: 26 mm; inhibition zone (IZ) [27]: 24 mm
10 | NNC(=O)c1ccncc1 [ISONIAZID] |  |  |  |  |  |  |  | 0.2 (≈ 1.46 µM) |  |  |  |  |  |  |  |  |  |  |  |  | 
